Read-outs that look alike come from different tables or passages of the source.
Key:
[1] = Stability of 177Lu-labeled peptides in fresh human serum; format: in vitro ADME; conditions: 37 °C, 24 h incubation
Experimental: (§1) The stability studies with the ^177Lu-labeled peptide analogs were carried out at a concentration of 0.5 nmol peptide/mL in fresh human serum (n = 2) for up to 24 h. A mixture of 0.05 nmol/mL of the radiolabeled peptides in PBS and octanol (1/1, v/v) was used to evaluate the octanol/PBS distribution coefficient (logD7.4; n = 8). To determine the protein binding in human serum by Sephadex G-50 size-exclusion chromatography (GE Healthcare Illustra, Little Chalfont, UK), a 25 µL serum sample was used for different time points after incubation. All steps were performed according to previously published protocols.

[2] = Octanol/PBS distribution coefficient (logD7.4); format: physicochemical; conditions: octanol/PBS 1/1, pH 7.4; read-out: logD (octanol/PBS)
Experimental: as §1

[3] = Protein binding in human serum by Sephadex G-50 size-exclusion chromatography; format: in vitro ADME; conditions: human serum; time point not given
Experimental: as §1

[4] = Biodistribution 4 h p.i. in A431-CCK2R/A431-mock xenografted BALB/c nude mice; format: in vivo; conditions: female, BALB/c nude, mouse, iv, 20 pmol, total radioactivity, 4 h p.i., 20 pmol; for tissue uptake at 4 h: ~0.5 MBq, n=5
Experimental: (§2) Then, after 7–11 days, when visible tumor xenografts were formed, groups of 5 mice were injected intravenously via a lateral tail vein with ~0.5 MBq of radiolabeled peptide, corresponding to 20 pmol of peptide, in a total volume of ~150 µL in PBS/0.5% BSA. Using an additional mouse per group, a blocking study was performed by co-injecting a 1000-fold molar excess of the respective peptide analog (20 nmol) together with the radiolabeled peptide. For quantification, a 1:1, 1:10 and 1:50 standard was prepared using aliquots of the injection solution mixed with PBS/0.5% BSA. Mice were euthanized by cervical dislocation 4 h after injection. Subsequently, a blood sample was collected, and different tissues were dissected. All samples, as well as the rest of the body were weighed, and the activity measured in the γ-counter together with the standard. Results were expressed as percentage of injected activity per gram of tissue (%IA/g).

[5] = test system: A431-CCK2R/A431-mock xenografted BALB/c nude mice; experiment: as above; format: in vivo; conditions: 4 h p.i., ~0.5 MBq, 20 pmol, n=5
Experimental: as §2

[6] = Biodistribution blocking experiment with 1000-fold excess of non-radiolabeled peptide; format: in vivo, mice; conditions: female, BALB/c nude, mouse, iv, total radioactivity, 4 h p.i., 1000-fold excess of non-radiolabeled peptide, n=1
Experimental: as §2

[7] = test system: A431-CCK2R/A431-mock xenografted BALB/c nude mice; experiment: as above; format: in vivo; conditions: 4 h p.i., 1000-fold excess of non-radiolabeled peptide, n=1
Experimental: as §2

[8] = BALB/c mice, cited from earlier work

For CCCC[C@@H](C(=O)N[C@@H](CC(=O)O)C(=O)N[C@@H](Cc1cccc2ccccc12)C(N)=O)N(C)C(=O)[C@H](Cc1c[nH]c2ccccc12)NC(=O)CNC(=O)[C@H](Cc1ccc(O)cc1)NC(=O)[C@H](C)NC(=O)[C@@H](CCC(=O)O)NC(=O)CN1CCN(CC(=O)O)CCN(CC(=O)O)CCN(CC(=O)O)CC1 [[^177Lu]Lu-DOTA-MGS5, metal not drawn, reference compound], which “intact radiopeptide in human serum” value [1] is on record?
Its value is 96.9 ± 0.3%.

What about the logD [2] of the same compound?
The logD was -2.25 ± 0.13.

And the fraction unbound [3]?
The fraction unbound was 0.667.

What about the tissue uptake at 4 h ([4]; A431-CCK2R tumor xenograft, read-out: uptake in A431-CCK2R xenografts) of the same compound?
The tissue uptake at 4 h was 22.8 ± 4.67 %ID/g.

And the tissue uptake at 4 h ([4]; A431-mock tumor xenograft, read-out: uptake in A431-mock xenografts)?
Its tissue uptake at 4 h is 0.19 ± 0.03 %ID/g.

And the tissue uptake at 4 h ([4]; blood, read-out: uptake in blood)?
Its tissue uptake at 4 h is 0.11 ± 0.11 %ID/g.

What about the tissue uptake at 4 h ([4]; femur, read-out: uptake in femur) of the same compound?
The tissue uptake at 4 h was 0.36 ± 0.35 %ID/g.

And the tissue uptake at 4 h ([4]; heart, read-out: uptake in heart)?
The tissue uptake at 4 h was 0.1 ± 0.06 %ID/g.

What about the tissue uptake at 4 h ([4]; intestine, read-out: uptake in intestine) of the same compound?
The tissue uptake at 4 h was 1.02 ± 0.23 %ID/g.

And the tissue uptake at 4 h ([4]; kidneys, read-out: uptake in kidneys)?
The tissue uptake at 4 h was 3.45 ± 0.91 %ID/g.

And the tissue uptake at 4 h ([4]; liver, read-out: uptake in liver)?
Its tissue uptake at 4 h is 1.02 ± 0.8 %ID/g.

And the tissue uptake at 4 h ([4]; lung, read-out: uptake in lung)?
The tissue uptake at 4 h was 0.17 ± 0.14 %ID/g.

What about the tissue uptake at 4 h ([4]; muscle, read-out: uptake in muscle) of the same compound?
The tissue uptake at 4 h was 0.1 ± 0.02 %ID/g.

What about the tissue uptake at 4 h ([4]; pancreas, read-out: uptake in pancreas) of the same compound?
The tissue uptake at 4 h was 1.91 ± 0.91 %ID/g.

What about the tissue uptake at 4 h ([4]; spleen, read-out: uptake in spleen) of the same compound?
The tissue uptake at 4 h was 0.27 ± 0.18 %ID/g.

What about the tissue uptake at 4 h ([4]; stomach, read-out: uptake in stomach) of the same compound?
The tissue uptake at 4 h was 6.26 ± 4.28 %ID/g.

What about the tissue to tissue ratio at 4 h ([4]; tumor / kidney, read-out: tumor-to-kidney ratio) of the same compound?
The tissue to tissue ratio at 4 h was 7.

And the uptake in liver [5]?
The uptake in liver was 1.02 ± 0.23 % IA/g.

And the tissue uptake at 4 h ([6]; A431-CCK2R tumor xenograft, read-out: uptake in A431-CCK2R xenograft, blocking)?
Its tissue uptake at 4 h is 0.54 %ID/g.

What about the tissue uptake at 4 h ([6]; A431-mock tumor xenograft, read-out: uptake in A431-mock xenograft, blocking) of the same compound?
Its tissue uptake at 4 h is 0.34 %ID/g.

And the tissue uptake at 4 h ([6]; blood, read-out: uptake in blood, blocking)?
The tissue uptake at 4 h was 0.09 %ID/g.

What about the tissue uptake at 4 h ([6]; femur, read-out: uptake in femur, blocking) of the same compound?
The tissue uptake at 4 h was 0.04 %ID/g.

And the tissue uptake at 4 h ([6]; heart, read-out: uptake in heart, blocking)?
The tissue uptake at 4 h was 0.08 %ID/g.

And the tissue uptake at 4 h ([6]; lung, read-out: uptake in lung, blocking)?
The tissue uptake at 4 h was 0.08 %ID/g.

What about the tissue uptake at 4 h ([6]; pancreas, read-out: uptake in pancreas, blocking) of the same compound?
Its tissue uptake at 4 h is 0.11 %ID/g.

And the tissue uptake at 4 h ([6]; stomach, read-out: uptake in stomach, blocking)?
The tissue uptake at 4 h was 0.09 %ID/g.

What about the “uptake in intestine, blocking” value [7] of the same compound?
Its value is 0.79 % IA/g.

And the “uptake in kidneys, blocking” value [7]?
Its value is 2.95 % IA/g.

And the “uptake in liver, blocking” value [7]?
Its value is 0.54 % IA/g.

And the “uptake in muscle, blocking” value [7]?
The value was 0.03 % IA/g.

And the “uptake in spleen, blocking” value [7]?
Its value is 0.16 % IA/g.

What about the “intact radiopeptide in blood” value ([8]; 10 min after intravenous injection) of the same compound?
Its value is 86%.

And the “intact radiopeptide in blood” value ([8]; 30 min p.i.)?
Its value is 77%.

What about the “intact radiopeptide in blood” value ([8]; 1 h after intravenous injection) of the same compound?
Its value is 70%.

Reference: publication PMC10058949, “Effect of N-Terminal Peptide Modifications on In Vitro and In Vivo Properties of ^177Lu-Labeled Peptide Analogs Targeting CCK2R” (Pharmaceutics, 2023)
